{"source": "patent US11008554B2", "about": "(priority 2014, dated 2021)", "biological_target": "recombinant human AChE (Homo sapiens, UniProt P22303, D92N/S572N)", "sequence (P22303 whole entry D92N/S572N, looked up)": "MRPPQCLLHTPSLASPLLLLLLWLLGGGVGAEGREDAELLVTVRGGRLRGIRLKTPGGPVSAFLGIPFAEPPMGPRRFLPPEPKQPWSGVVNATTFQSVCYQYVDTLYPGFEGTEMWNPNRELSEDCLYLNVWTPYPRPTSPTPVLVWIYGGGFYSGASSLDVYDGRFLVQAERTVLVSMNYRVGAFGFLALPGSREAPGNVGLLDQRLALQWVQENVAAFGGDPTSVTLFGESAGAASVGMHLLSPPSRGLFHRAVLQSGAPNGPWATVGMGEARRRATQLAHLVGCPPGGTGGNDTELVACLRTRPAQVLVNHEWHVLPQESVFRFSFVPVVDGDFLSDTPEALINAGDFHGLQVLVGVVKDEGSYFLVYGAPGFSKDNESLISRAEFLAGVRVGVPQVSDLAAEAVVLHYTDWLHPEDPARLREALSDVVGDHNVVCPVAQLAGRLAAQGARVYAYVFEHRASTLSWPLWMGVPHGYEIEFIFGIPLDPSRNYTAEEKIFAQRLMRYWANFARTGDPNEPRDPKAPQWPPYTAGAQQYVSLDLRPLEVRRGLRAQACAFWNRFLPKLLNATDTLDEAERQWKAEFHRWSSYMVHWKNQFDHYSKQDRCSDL", "assay_type": "biochemical"}
{"molecule": "CCOP(=O)(OCC)Oc1ccc([N+](=O)[O-])cc1", "note": "[paraoxon]", "values": [{"measurement": "inhibition of AChE enzyme (localized red spot)", "value": "inhibited"}]}
